# Reference: patent publication US20210046137A1, “ANTIMICROBIAL PHOTOSENSITIZER COMPOSITION AND METHOD” (ToeFX Inc., priority 2018, published 2021)
# Tests used:
# Trichophyton rubrum = assay: Methylene blue phototherapy of infected nail pieces, ex vivo; assay type: cell-based; design: key to Fungal growth on nail pieces after treatment: “G” indicates growth; “N” indicates no growth
# Procedure: Sterilized nail pieces were placed on fresh T.rubrum lawn to be infected for at least 10 days with dorsal side upwards. […] Control was carrier solution with no Methylene blue. […] The nails were exposed to red light (640 nm, 9 W—3 LED lights, 3 W each) for 30 min. Amount of viable fungal colonies of Trichophyton rubrum after treatment relative to control was observed using microscope and once visual continued to be monitored with the naked eye. Results are shown in Table 2, where “G” indicates growth and “N” indicates no growth. […] After 5 days mycelium growth was found for the 0.0625% and 0.03125% treatments. After 6 days of the treatment mycelium was found for the 0.125% treatments. […] Meaning that there is a need for a secondary treatment or alternative treatment in order to obtain prolonged inhibition of re-growth.
# C. albicans = settings: low curcumin concentrations, planktonic and biofilm form; cited from earlier work
smiles,measurement,setting,value
"CN(C)c1ccc2nc3ccc(=[N+](C)C)cc-3sc2c1 [MB, Methylene blue]",Fungal growth on nail pieces after treatment,"Trichophyton rubrum; 0.03% MB in carrier, red light 640 nm 30 min, Day 3",N
same,Fungal growth on nail pieces after treatment,"Trichophyton rubrum; 0.03% MB in carrier, red light 640 nm 30 min, Day 4",N
same,Fungal growth on nail pieces after treatment,"Trichophyton rubrum; 0.03% MB in carrier, red light 640 nm 30 min, Day 6",G
same,Fungal growth on nail pieces after treatment,"Trichophyton rubrum; 0.03% MB in carrier, red light 640 nm 30 min, Day 7",G
same,Fungal growth on nail pieces after treatment,"Trichophyton rubrum; 0.03% MB in carrier, red light 640 nm 30 min, Day 8",G
same,Fungal growth on nail pieces after treatment,"Trichophyton rubrum; 0.03% MB in carrier, red light 640 nm 30 min, Day 9",G
same,Fungal growth on nail pieces after treatment,"Trichophyton rubrum; 0.03% MB in carrier, red light 640 nm 30 min, Day 10",G
same,Fungal growth on nail pieces after treatment,"Trichophyton rubrum; 0.03% MB in carrier, red light 640 nm 30 min, Day 12",G
same,Fungal growth on nail pieces after treatment,"Trichophyton rubrum; 0.03% MB in carrier, red light 640 nm 30 min, Day 13",G
same,Days after treatment at which mycelium growth was found,"Trichophyton rubrum; 0.03125% MB, red light 640 nm 30 min",5 days
same,Fungal growth on nail pieces after treatment,"Trichophyton rubrum; 0.0625% MB in carrier, red light 640 nm 30 min, Day 3",N
same,Fungal growth on nail pieces after treatment,"Trichophyton rubrum; 0.0625% MB in carrier, red light 640 nm 30 min, Day 4",N
same,Fungal growth on nail pieces after treatment,"Trichophyton rubrum; 0.0625% MB in carrier, red light 640 nm 30 min, Day 6",G
same,Fungal growth on nail pieces after treatment,"Trichophyton rubrum; 0.0625% MB in carrier, red light 640 nm 30 min, Day 7",G
same,Fungal growth on nail pieces after treatment,"Trichophyton rubrum; 0.0625% MB in carrier, red light 640 nm 30 min, Day 8",G
same,Fungal growth on nail pieces after treatment,"Trichophyton rubrum; 0.0625% MB in carrier, red light 640 nm 30 min, Day 9",G
same,Fungal growth on nail pieces after treatment,"Trichophyton rubrum; 0.0625% MB in carrier, red light 640 nm 30 min, Day 10",G
same,Fungal growth on nail pieces after treatment,"Trichophyton rubrum; 0.0625% MB in carrier, red light 640 nm 30 min, Day 12",G
same,Fungal growth on nail pieces after treatment,"Trichophyton rubrum; 0.0625% MB in carrier, red light 640 nm 30 min, Day 13",G
same,Days after treatment at which mycelium growth was found,"Trichophyton rubrum; 0.0625% MB, red light 640 nm 30 min",5 days
same,Fungal growth on nail pieces after treatment,"Trichophyton rubrum; 0.125% MB in carrier, red light 640 nm 30 min, Day 3",N
same,Fungal growth on nail pieces after treatment,"Trichophyton rubrum; 0.125% MB in carrier, red light 640 nm 30 min, Day 4",N
same,Fungal growth on nail pieces after treatment,"Trichophyton rubrum; 0.125% MB in carrier, red light 640 nm 30 min, Day 6",N
same,Fungal growth on nail pieces after treatment,"Trichophyton rubrum; 0.125% MB in carrier, red light 640 nm 30 min, Day 7",G
same,Fungal growth on nail pieces after treatment,"Trichophyton rubrum; 0.125% MB in carrier, red light 640 nm 30 min, Day 8",G
same,Fungal growth on nail pieces after treatment,"Trichophyton rubrum; 0.125% MB in carrier, red light 640 nm 30 min, Day 9",G
same,Fungal growth on nail pieces after treatment,"Trichophyton rubrum; 0.125% MB in carrier, red light 640 nm 30 min, Day 10",G
same,Fungal growth on nail pieces after treatment,"Trichophyton rubrum; 0.125% MB in carrier, red light 640 nm 30 min, Day 12",G
same,Fungal growth on nail pieces after treatment,"Trichophyton rubrum; 0.125% MB in carrier, red light 640 nm 30 min, Day 13",G
same,Days after treatment at which mycelium growth was found,"Trichophyton rubrum; 0.125% MB, red light 640 nm 30 min",6 days
same,Fungal growth on nail pieces after treatment,"Trichophyton rubrum; 0.25% MB in carrier, red light 640 nm 30 min, Day 3",N
same,Fungal growth on nail pieces after treatment,"Trichophyton rubrum; 0.25% MB in carrier, red light 640 nm 30 min, Day 4",N
same,Fungal growth on nail pieces after treatment,"Trichophyton rubrum; 0.25% MB in carrier, red light 640 nm 30 min, Day 6",N
same,Fungal growth on nail pieces after treatment,"Trichophyton rubrum; 0.25% MB in carrier, red light 640 nm 30 min, Day 7",N
same,Fungal growth on nail pieces after treatment,"Trichophyton rubrum; 0.25% MB in carrier, red light 640 nm 30 min, Day 8",N
same,Fungal growth on nail pieces after treatment,"Trichophyton rubrum; 0.25% MB in carrier, red light 640 nm 30 min, Day 9",N
same,Fungal growth on nail pieces after treatment,"Trichophyton rubrum; 0.25% MB in carrier, red light 640 nm 30 min, Day 10",N
same,Fungal growth on nail pieces after treatment,"Trichophyton rubrum; 0.25% MB in carrier, red light 640 nm 30 min, Day 12",N
same,Fungal growth on nail pieces after treatment,"Trichophyton rubrum; 0.25% MB in carrier, red light 640 nm 30 min, Day 13",G
same,Days after treatment at which growth was found,"Trichophyton rubrum; 0.25% MB, red light 640 nm 30 min",12 days
same,Effect on fungus growth,"Trichophyton rubrum; MB alone (without light), separate experiment",did not kill nor inhibit
"COc1cc(/C=C/C(=O)CC(=O)/C=C/c2ccc(O)c(OC)c2)ccc1O [curcumin, diferuloylmethane]",photoinactivating C. albicans,C. albicans,highly effective
